The subject of one experiment is wpk−/− rats. The experiment can be described thus: Intraocular pressure in wpk−/− rats (Tonolab tonometer). Format: in vivo, rat. Conditions: 17-day-old wpk−/− rats, systemic, once per day for 8 days, agonist 50 ng/g, measured 24 hours after treatment. Here is the method: All animal experiments followed the guidelines of the ARVO Statement for the Use of Animals in Ophthalmic and Vision Research and were approved by the Institutional Animal Care and Use Committee of Indiana University School of Medicine. Wpk rats, a polycystic kidney disease model, were housed under a 12-hour light/dark cycle with free access to water and food (Smith et al., Nat. Genet. 2006, 38(2):191-196). For […], 50 mg/ml sodium pentobarbital was injected.
(§1) lntraocular Pressure (TOP) was measured with the TONOLAB tonometer TV02 (Helsinki, Finland) with rats under topical anesthesia. IOP was measured using six valid rebound measurements of the device from the eye, where the mean of the middle five readings was taken for one summary measurement. A single set of readings was collected with the best reproducibility indicator during the IOP measurements.
Based on the results presented above, the functional consequences of activating TRPV4 on eye pressure were therefore assessed in the wpk rat model. The wpk rat is a well-established model for studying ciliopathy, as these animals develop hydrocephalus that responds to cilia-based therapy.
8-day old wpk^−/− rats were treated with sham, TRPV4 agonist (50 ng/g, GSK 1016790A), or antagonist (HC 067047) once per day for 8 days. […]

A further experiment concerns the target T1, TRPV4 (Homo sapiens, UniProt Q9HBA0).
T1 construct: endogenous in cells; host or cells: HTM cells, NHF fibroblasts, NHKC keratinocytes, Lowe syndrome patient fibroblasts and keratinocytes
The experiment can be described thus: Ca2+ imaging, Fura-2 F340/380 ratio after TRPV4 agonist. Details: TRPV4-induced calcium flux, ratio of F340/380: dose or concentration left out as unconfirmed. Format: cell-based. Here is the method: Flow-induced Ca^2+ signals were examined in the presence and absence of cilia in HTM cells. To remove primary cilia, 2 mM aqueous chlorohydrate (Sigma, St. Louis) was added for 48 hours. Prior to flow experiments, cells were washed three times with PBS, and fresh medium was added for 24 hours. The Fura-2 loaded HTM cells were subjected to laminar flow rates as indicated. Single-cell analysis of the Ca^2+ signals (ratio 340/380 nm) of the same experiment was obtained. Intracellular Ca^2+ changes were monitored by ratiometric imaging of Fura-2 AM fluorescence in the HTM cells. HTM cells were loaded with Fura-2 AM for 1 hour at 37° C. in PBS with 40 μM fura-2 AM, 0.33 mM pyruvate, 0.901 mM Ca^2+, 0.5 mM Mg^2+, 5.5 mM glucose, and 0.1% BSA. The Fura-2 AM-loaded HTM cells were washed in PBS and were mounted in the chamber. Ca^2+ imaging experiments were performed using a monochromator-based TILL PHOTONICS imaging system, which was attached to an inverted ZEISS microscope equipped (×2.5 objective) with a back-illuminated ANDOR CCD camera. Fura-2 AM was alternately excited at 345 nm and 380 nm and the emitted light was collected using a 510-nm long-pass filter. The TILLVISION software (TILL PHOTONICS) was used to acquire all fluorescence imaging experiments and to perform the analysis of images. Images were acquired every 2 seconds. The background fluorescence was subtracted and the intracellular Ca^2+ concentration ([Ca^2+]i) was calculated using the equation: [Ca^2+]i=Kd×[(R−Rmin)/(Rmax−R)]×[Fmax(380)/Fmin(380)](R is the fluorescence ratio, Rmax is the ratio at saturation calcium concentration, Rmin is the ratio at zero calcium in the medium, Fmin(380) is the fluorescence at 380 nm at zero Ca^2+ concentration in the medium, and Fmax(380) is the fluorescence at 380 nm at saturation Ca^2+ concentration) (Touw et al., Am. J. Physiol. Gastro. Liver Physiology 2012, 302(1):G66-76).
For calcium flow experiments, HTM cells and NHF cells were first incubated in 3% BSA in PBS and stained with Fura2 dye for 1 hour. Ca^2+ flux was induced by laminar flow gradient (16 μl/s) over the cell surface, which bends cilia, followed by 10 mM KCl. Cells were imaged for calcium during flow. Calcium flux was also measured by F340/380 ratio in HTM cells and NHF cells after treatment with the 0.1 μM TRPV4 agonist GSK1016790A. Results presented represent calcium mobilization in three independent experiments.
HTM cells treated, with or without pressure, were further evaluated to determine their response to TRPV4 agonist. HTM cells were serum-starved for 48 hours to induce ciliogenesis, followed by treatment with 0 or 50 mmHg for 3 hours. Cells were loaded with Fura-2 AM dye for 1 hour, followed with […] TRPV4 agonist GSK1016790A.
OCRL is required for TRPV4-mediated calcium signalling in HTM cells. HTM cells were additionally treated with OCRL siRNA or scrambled control siRNA, with or without wild-type OCRL or OCRL-D499A rescue. 0.1 μM TRPV4 agonist GSK1016790A treatment was performed and calcium mobilization by F340/380 (value X 1000) was measured and shown.
Additionally, a Lowe syndrome patient's keratinocytes were isolated and assayed for their response to TRPV4 treatment. NHKC or Lowe keratinocytes were serum-starved, loaded with Fura-2 AM and then treated with 0.1 μM TRPV4 agonist GSK1016790A. F340/380 ratio (value X 1000) was determined.

Another experiment relates to C57BL/6 WT mice. The experiment in a line: Intraocular pressure in C57BL/6 WT mice, 4 days of treatment. Particulars: nine-week old C57BL/6 WT mice, systemic, daily over 4 days, 24 hours after treatment; decrease from 12.4. The experiment is classed as in vivo, mouse. As for the experimental part:
as §1
This finding was confirmed in wild-type C5BL/6 mice treated with systemic TRPV4 agonist, antagonist, or sham control, daily over 4 days. Nine-week old C57BL/6 WT mice were treated with sham, TRPV/4 agonist GSK 1016790A or antagonist HC 067047 for 4 days. IOP was measured using a Tonolab tonometer 24 hours after treatment. As shown in FIG. 12D article, a decrease in IOP from 12.4 to 10.3 mmHg was seen.

The next experiment has as its system HTM cells. The experiment can be described thus: Pressure-induced TNFα, TGFβ1 and Gli1 mRNA in serum-starved HTM cells (RT-PCR). Format: cell-based, human. Conditions: 50 mmHg for 3 hours. As for the experimental part: Total RNA was extracted using the RNAEASY® kit (Qiagen). Purified RNA was quantitated with the NANODROP® 2000 (Thermo Fisher Scientific, Lafayette, Colo.). Reverse transcription of total RNA was done using SUPERSCRIPT cDNA synthesis kit (Invitrogen) with random hexamers. Quantitative RT-PCR was performed using the RQ and ΔΔCt method on a Step One Real-Time PCR machine (Bio-Rad Laboratories, Hercules, Calif.). Each assay was performed in triplicate with Power SYBR green MasterMix (SA Biosciences, Frederick, Md.).
To analyze the cellular changes in the TM cells, a hydrostatic pressure chamber was developed similar to that of Mandel et al. (Invest. Ophthalmol. Vis. Sci. 2010, 51(6):3129-3138). The cells were grown in 60 mm polycarbonate dishes sealed to attach to a plastic column filled with 400 mL DMEM/F12 media with or without serum for cilia induction. The column was temperature controlled at 37° C. in humidified chamber. […]
HTM cells were serum-starved for 48 hours and treated with saline, saline plus 50 mmHg pressure, chlorohydrate, and chlorohydrate plus 50 mmHg pressure for 3 hours. Levels of mRNA of TNFα, TGFβ1 and Gli1 were then measured. […] Serum-starved HTM cells were also placed under 50 mmHg pressure for 0, 10, 20, 40, 60 and 80 minutes and analyzed for expression of TNFα and IL-33. […]

T1 sequence (Q9HBA0 whole entry): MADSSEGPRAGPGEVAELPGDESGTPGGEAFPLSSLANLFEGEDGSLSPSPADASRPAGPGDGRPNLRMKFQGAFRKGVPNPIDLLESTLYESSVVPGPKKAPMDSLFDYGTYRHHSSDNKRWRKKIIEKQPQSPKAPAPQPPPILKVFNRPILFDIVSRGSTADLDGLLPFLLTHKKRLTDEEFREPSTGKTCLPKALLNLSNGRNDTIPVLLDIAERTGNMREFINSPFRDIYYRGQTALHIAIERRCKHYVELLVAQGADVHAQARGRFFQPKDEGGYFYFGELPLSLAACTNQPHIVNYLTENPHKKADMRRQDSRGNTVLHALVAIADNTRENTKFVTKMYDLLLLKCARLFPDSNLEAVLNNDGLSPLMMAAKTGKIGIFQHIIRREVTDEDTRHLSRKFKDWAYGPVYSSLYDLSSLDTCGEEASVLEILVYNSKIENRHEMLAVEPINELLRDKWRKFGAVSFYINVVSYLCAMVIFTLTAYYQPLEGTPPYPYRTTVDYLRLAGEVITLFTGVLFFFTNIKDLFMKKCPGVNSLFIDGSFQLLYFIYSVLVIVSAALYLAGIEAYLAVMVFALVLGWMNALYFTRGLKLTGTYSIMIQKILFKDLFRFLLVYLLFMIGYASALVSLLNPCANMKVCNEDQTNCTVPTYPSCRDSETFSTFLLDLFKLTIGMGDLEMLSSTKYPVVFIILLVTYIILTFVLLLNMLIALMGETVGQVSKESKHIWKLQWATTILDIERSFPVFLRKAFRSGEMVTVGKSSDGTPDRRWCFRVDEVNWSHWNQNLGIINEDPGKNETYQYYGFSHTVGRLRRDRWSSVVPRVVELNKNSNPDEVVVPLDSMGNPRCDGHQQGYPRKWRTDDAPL

On to `CC(C)C[C@H](NC(=O)c1cc2ccccc2s1)C(=O)N1CCN(C(=O)[C@H](CO)NS(=O)(=O)c2ccc(Cl)cc2Cl)CC1` [GSK1016790A, N-((1S)-1-{[4-((2S)-2-{[(2,4-dichlorophenyl)sulfonyl]amino}-3-hydroxypropanoyl)-1-piperazinyl]carbonyl}-3-methylbutyl)-1-benzothiophene-2-carboxamide], for which the Intraocular pressure entry in the experiment with wpk−/− rats is on record as “significantly reduced”. Further, the “Calcium mobilization by F340/380” value at TRPV4 (HTM cells treated with OCRL siRNA, 0.1 μM agonist, rescued by wild-type OCRL, not by D499A mutant) is on record as “decrease in F340/F380 fura-2 signaling”. Besides, the Calcium mobilization result on TRPV4 (Lowe patient fibroblasts (Lowe 1, Lowe 2)) is given as “failed to elicit calcium mobilization”. Besides, at TRPV4 (Lowe patient keratinocytes compared with normal keratinocytes (NHKC), 0.1 μM agonist), the “Calcium mobilization, F340/380 ratio” value is listed as “failed to elicit calcium mobilization”. The “Calcium flux as measured by F340/380 ratio” value on TRPV4 (NHF cells, 0.1 μM agonist) is listed as “elicited”. Moreover, the “TRPV4-induced calcium flux, ratio of F340/380” value at TRPV4 (ciliated HTM cells, 50 mmHg hydrostatic pressure for 3 hours vs 0 mmHg) is recorded as “significant decrease in TRPV4-induced calcium flux”. Moreover, in the experiment on C57BL/6 WT mice, the IOP stood at 10.3 mmHg.
In the case of `Cc1c(C(=O)Nc2cccc(C(F)(F)F)c2)cc(-c2ccccc2)n1CCCN1CCOCC1` [HC 067047], the Intraocular pressure entry in the experiment on wpk−/− rats was “not”.
Regarding `OC(O)C(Cl)(Cl)Cl` [chlorohydrate], the “Elevation of gene transcription (TNFα, TGFβ1, Gli1 mRNA) in response to pressure” value in the experiment with HTM cells was “reduced the elevation of gene transcription in response to pressure”.

(Values after patent US9872863B2, “Targeting primary cilia to treat glaucoma” (Indiana University Research and Technology Corporation, priority 2014, dated 2018).)
